The source of these data is patent EP2265599B1, “CRYSTAL FORM OF PHENYLAMINOPYRIMIDINE DERIVATIVE” (Natco Pharma Limited, priority 2008, dated 2009).

SMILES strings stand for the structures. Entries after “also recorded” stand apart in the source; their conditions may differ. Structures can show the parent of a compound that is named as a salt.

The nature of data set [1]: Thermodynamic stability of the crystal forms at room temperature. The class given is physicochemical.
Data set [2] can be described thus: Stability of Form-III crystal form under accelerated stress conditions in bulk and formulated capsule. The class given is physicochemical. From the text: Table 5 - Stability of Form-III crystal form in bulk and formulated capsule
Data set [3] can be described thus: Heat stability of Form-III crystal form (heated in oil bath, examined by XRPD). The class given is physicochemical. Particulars: 6 hours, form-I and Form-II below the detection level. The text has this:
Pure Form-III crystal form (1 gm) prepared by the present process was placed in a boiling tube and heated gradually in oil bath. Then the substance was examined by XRPD.

Data set [4] deals with K562 luciferase expressing cells. Nature of the data set: Leukemic survival study, K562 luciferase expressing cells implanted intraperitoneally. The data set is classed as in vivo, nude mice.
From the text: K562 luciferase expressing cells were implanted intraperitoneally into nude mice; the mice were scanned using the xenogeny IVIS image station after ip injections of luciferin does determine implantations. Drug treatment was started as in previous studies day 15 after implantation. The animals were given treatment till day 42, after which drug treatment was stopped and survival of the animals determined as per the animal care regulations. […] Drug treatment was withdrawn on day 42 post implantation and survival of animals determined.
The test system of data set [5] is K562 luc human leukemia cells. Nature of the data set: Low dose oral treatment of nude mice implanted with K562 luc cells (luciferase expression). To be noted: oral administration. The class given is in vivo. Here is the method:
Nude mice (nu/nu) were implanted with K562 cells (1x106) normal/luc via tail vein. Five mice were used per group and divided into 24 groups + 2 control. All groups were implanted with K562 normal/luc cells. Of the 24 groups, 12 were used for luciferase studies whereas the other 12 were used for blood smear count studies.
Drugs were administered by oral gavage (2% gum acacia and 2% SLS in an aqueous suspension).

For data set [6], the system named is 4910 human glioma xenograft cells. Nature of the data set: Glioma radiation study, intracranially implanted 4910 cells. The class given is in vivo, Nude mice. To be noted: terminated at day 40. Here is the method: Nude mice were intracranially implanted with 4910 human glioma xenograft cells (1x10^6 cells). Ten days after implantation mice were treated with AN019, AN024 or temozolomide with or without radiation (5Gy/week). The experiment was terminated at day 40 post implantation.

Consider `Cc1ccc(NC(=O)c2cc(C(F)(F)F)cc(C(F)(F)F)c2)cc1Nc1nccc(-c2cccnc2)n1` [Form-I, (3,5-bis trifluoromethyl)-N-[4-methyl-3-(4-pyridin-3yl-pyrimidin-2ylamino)-phenyl]-benzamide], for which the “stability of crystal form at room temperature” value (from here on “stability of crystal form”) in data set [1] is “metastable at room temperature”.
Consider `Cc1ccc(NC(=O)c2cc(C(F)(F)F)cc(C(F)(F)F)c2)cc1Nc1nccc(-c2cccnc2)n1` [Form-II, (3,5-bis trifluoromethyl)-N-[4-methyl-3-(4-pyridin-3yl-pyrimidin-2ylamino)-phenyl]-benzamide], for which, in data set [1], the “stability of crystal form” value is listed as “metastable at room temperature”.
Turning to `Cc1ccc(NC(=O)c2cc(C(F)(F)F)cc(C(F)(F)F)c2)cc1Nc1nccc(-c2cccnc2)n1` [Form-III, (3,5-bis trifluoromethyl)-N-[4-methyl-3-(4-pyridin-3yl-pyrimidin-2ylamino)-phenyl]-benzamide], the “Polymorph content of bulk compound of formula I, Polymorph form detected” value in data set [2] (0 Month at 40±2°C / 75 ±5% RH), in data set [2] (1 Month at 40±2°C / 75 ±5% RH), in data set [2] (2 Months at 40±2°C / 75 ±5% RH), in data set [2] (3 Months at 40±2°C / 75 ±5% RH) and in data set [2] (6 Months at 40±2°C / 75 ±5% RH) was “Form-III” throughout. The “Polymorph content of Formula I in formulated capsule, Polymorph form detected” value in data set [2] (0 Month at 40±2°C / 75 ±5% RH), in data set [2] (1 Month at 40±2°C / 75 ±5% RH), in data set [2] (2 Months at 40±2°C / 75 ±5% RH), in data set [2] (3 Months at 40±2°C / 75 ±5% RH) and in data set [2] (6 Months at 40±2°C / 75 ±5% RH) was “Form-III” throughout. The “Polymorph form detected after heating” value in data set [3] (110°C) was “Form-III”; in data set [3] (120°C), “Form-III”; in data set [3] (130°C), “non-metastable and stable when heated at 130 °C for 6 hours; also recorded: stable to heat even at 130 °C for 6 hours; also recorded: Form-III”. Besides, the “stability of crystal form” value in data set [1] is recorded as “thermodynamically stable form at room temperature”.
Regarding `Cc1ccc(NC(=O)c2ccc(CN3CCN(C)CC3)cc2)cc1Nc1nccc(-c2cccnc2)n1` [Imatinib, Imatinib mesylate, reference compound], the “leukemic symptoms after treatment withdrawal” value in data set [4] (drug treatment withdrawn on day 42) is on record as “showed reoccurrences of leukemic symptoms after treatment withdrawal”. In addition, the “Blast cell count from blood smears after withdrawal of drug treatment” value in data set [4] (drug treatment withdrawn on day 42 (Fig. 21)) is recorded as “found to be ineffective”. Moreover, in data set [4] (treatment from day 15 till day 42, then withdrawn, AN024 death determined to be other than leukemia), the mortality result is “showed mortality on day 55, 56, 57 and 58”. Further, the luciferase expression entry in data set [5] (10mg/kg) and in data set [5] (20mg/kg) was “did show a retardation of luciferase expression” throughout.
For the molecule `Cn1nnc2c(C(N)=O)ncn2c1=O` [Temozolomide, reference compound], the “animals cured / no observable intracranial tumor” value in data set [6] (with radiation (5Gy/week)) is reported as 2 of 10 animals. Besides, the “animals cured / complete absence of intracranial tumours” value in data set [6] (without radiation, treatment from ten days after implantation) was 3 of 10 animals.
